In publication PMC11981944 (Nature, 2025):
Where two headings read alike, the source gives them in different places.

Key:
SARS-CoV-2 = assay type: cell-based
[1] = tested on: SARS-CoV-2 (strain BavPat1/2020); assay type: cell-based
SARS-CoV-2 B.1.351 = assay type: in vivo; conditions: SCID mice, no ritonavir
SARS-CoV-2 USA-WA1/2020 = tested on: SARS-CoV-2 USA-WA1/2020; parameters: species or system Syrian hamsters (Mesocricetus auratus); conditions: hamster, in vivo

| SMILES | antiviral activity (in words) (SARS-CoV-2) | DMVs by TEM (in words) [1] | antiviral activity in vivo (in words) (SARS-CoV-2 B.1.351; 100 mg per kg twice a day) | antiviral activity in vivo (in words) (SARS-CoV-2 B.1.351; three-fold higher dose (300 mg per kg twice a day)) | lung parenchyma histology (in words) (SARS-CoV-2 USA-WA1/2020) |
| --- | --- | --- | --- | --- | --- |
| N#C[C@@]1(c2ccc3c(N)ncnn23)O[C@H](CO)[C@@H](O)[C@H]1O [GS-441524] | micromolar range |  |  |  |  |
| CC(C)(C)[C@H](NC(=O)C(F)(F)F)C(=O)N1C[C@H]2[C@@H]([C@H]1C(=O)N[C@H](C#N)C[C@@H]1CCNC1=O)C2(C)C [Nirmatrelvir] |  | no cells producing DMV clusters, virions or concentric membrane stacks could be detected | devoid of antiviral activity | effective | nearly normal |
